Experimental data reported in article PMC4220016, “The binding characteristics and orientation of a novel radioligand with distinct properties at 5-HT3A and 5-HT3AB receptors” (Neuropharmacology, 2014).
Where two headings read alike, the source gives them in different places.

Legend:
5-HT3AB receptors = target: T1, 5-HT3AB receptors (Homo sapiens, UniProt O95264+P46098); test: Competition binding with [^3H]VUF10166 at 5-HT3AB receptors
T1 sequence (P46098 24-478): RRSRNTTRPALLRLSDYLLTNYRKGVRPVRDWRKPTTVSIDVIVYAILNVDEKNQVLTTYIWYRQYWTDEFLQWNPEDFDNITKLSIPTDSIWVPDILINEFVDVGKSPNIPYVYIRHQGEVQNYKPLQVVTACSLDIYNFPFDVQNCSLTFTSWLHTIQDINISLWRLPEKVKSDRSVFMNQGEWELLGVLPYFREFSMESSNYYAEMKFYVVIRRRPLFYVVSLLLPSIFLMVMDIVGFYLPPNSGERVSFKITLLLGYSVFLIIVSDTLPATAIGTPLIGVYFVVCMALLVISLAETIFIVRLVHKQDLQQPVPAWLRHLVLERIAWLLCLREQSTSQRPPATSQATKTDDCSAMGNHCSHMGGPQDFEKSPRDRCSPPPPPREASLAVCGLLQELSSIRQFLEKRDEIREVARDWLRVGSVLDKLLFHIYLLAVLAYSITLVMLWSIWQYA
T1 sequence (O95264 22-441): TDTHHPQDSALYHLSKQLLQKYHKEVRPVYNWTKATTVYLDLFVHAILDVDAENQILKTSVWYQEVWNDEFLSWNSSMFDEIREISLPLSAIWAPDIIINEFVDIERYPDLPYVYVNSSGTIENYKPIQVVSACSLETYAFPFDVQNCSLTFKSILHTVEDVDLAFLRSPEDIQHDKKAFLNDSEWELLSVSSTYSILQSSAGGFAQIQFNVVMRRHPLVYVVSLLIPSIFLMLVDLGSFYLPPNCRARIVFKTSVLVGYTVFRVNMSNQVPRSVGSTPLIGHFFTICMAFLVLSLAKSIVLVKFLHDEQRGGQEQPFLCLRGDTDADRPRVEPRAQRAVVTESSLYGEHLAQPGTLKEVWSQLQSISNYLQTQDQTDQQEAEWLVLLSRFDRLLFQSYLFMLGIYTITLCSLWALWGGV

5-HT3A receptors = target: T2, 5-HT3A receptors (Homo sapiens, UniProt P46098); test: Competition binding with [^3H]VUF10166 at 5-HT3A receptors
T2 sequence (P46098 24-478): T1 sequence (P46098 24-478)

inhibition of specific [^3H]VUF10166 binding (in words) (5-HT3AB receptors; 5-HT3AB)	inhibition of specific [^3H]VUF10166 binding (in words) (5-HT3A receptors; 5-HT3A)	Compound	inhibition of specific [^3H]VUF10166 binding (in words) (5-HT3AB receptors)	inhibition of specific [^3H]VUF10166 binding (in words) (5-HT3A receptors)
not	not	CC(=O)OCC[N+](C)(C)C [ACh]	–	–
–	–	CN1CCc2cc3c(cc2[C@H]1[C@@H]1OC(=O)c2c1ccc1c2OCO1)OCO3 [Bicuculline]	not	not
–	–	CC(C)(C)[C@]1(O)CC2OC(=O)CC23C(=O)OC2OC(=O)[C@H](O)C231 (some centres unmarked) [Bilobalide]	not	not and unaffected
not	not	COc1ccc(-c2ccc(=N)n(CCCC(=O)O)n2)cc1 [Gabazine]	–	–
–	–	CC1C(=O)O[C@H]2[C@H](O)[C@@]34[C@H]5C[C@@H](C(C)(C)C)[C@@]36C(O)C(=O)O[C@H]6O[C@@]4(C(=O)O5)[C@@]12O (some centres unmarked) [Ginkgolide]	not	not and unaffected
not	not	NCC(=O)O [Glycine]	–	–
–	–	CN1[C@@H]2CC[C@H]1C[C@@H](OC(=O)c1cc(Cl)cc(Cl)c1)C2 [MDL72222]	inhibited	inhibited
